Common to all, as to type: functional
For one test, the system named is Escherichia coli. Kind of test: Antimicrobial activity against Escherichia coli ATCC 25922.
The next test has as its system Providencia rettgeri. Kind of test: Antimicrobial activity against Providencia rettgeri ATCC 31052.
For test [1], the system named is Klebsiella pneumoniae. Kind of test: Antimicrobial activity against ESBL-producing Klebsiella pneumoniae ATCC 700603.
In the next test the test system is Enterococcus faecium. Kind of test: Antimicrobial activity against vancomycin-resistant Enterococcus faecium ATCC 700221.
Test [2] concerns Klebsiella pneumoniae. Kind of test: Antimicrobial activity against NDM-1 producing Klebsiella pneumoniae ATCC BAA-2146.
In test [3] the test system is Staphylococcus aureus. Kind of test: Antimicrobial activity against methicillin- resistant Staphylococcus aureus ATCC 33591.
A further test relates to Proteus vulgaris. Kind of test: Antimicrobial activity against Proteus vulgaris ATCC 29905.
In test [4] the test system is Klebsiella pneumoniae. Kind of test: Potency index, ratio of MIC for Levofloxacin to MIC for test compound against NDM-1 producing Klebsiella pneumoniae ATCC BAA-2146.
The test system of test [5] is Staphylococcus epidermidis. Kind of test: Antimicrobial activity against methicillin-susceptible Staphylococcus epidermidis ATCC 12228.
Test [6] has as its system Klebsiella pneumoniae. Kind of test: Antimicrobial activity against Klebsiella pneumoniae 7.
The subject of test [7] is Enterococcus faecalis. Kind of test: Antimicrobial activity against Vancomycin-sensitive Enterococcus faecalis ATCC 29212.
The next test concerns Citrobacter freundii. Kind of test: Antimicrobial activity against Citrobacter freundii ATCC 43864.
For test [8], the system named is Acinetobacter calcoaceticus. Kind of test: Antimicrobial activity against Acinetobacter calcoaceticus ATCC 19606.
A further test relates to Pseudomonas aeruginosa. Kind of test: Antimicrobial activity against Pseudomonas aeruginosa ATCC 27853.
The test system of test [9] is Staphylococcus aureus. Kind of test: Antimicrobial activity against methicillin-sensitive Staphylococcus aureus ATCC 29213.
Test [10] deals with Enterococcus faecalis. Kind of test: Antimicrobial activity against Vancomycin-resistant Enterococcus faecalis ATCC 51299.

In brackets after ≈: the same amount, converted by molar mass.

`COc1cc(Oc2ccc(-c3cc4ccc(C(=N)N(C)C)cc4[nH]3)cc2)ccc1-c1cc2ccc(C(=N)N(C)C)cc2[nH]1`: the minimum inhibitory concentration (MIC) against Escherichia coli was found to be 2 µg/mL (≈ 3.5 µM); in the test on Providencia rettgeri it was 8 µg/mL (≈ 14 µM); against Klebsiella pneumoniae [1], 8 µg/mL (≈ 14 µM); in the test with Enterococcus faecium it was 1 µg/mL (≈ 1.75 µM); against Klebsiella pneumoniae [2], 8 µg/mL (≈ 14 µM); with Staphylococcus aureus [3] it was 0.25 µg/mL (≈ 0.438 µM). For the same compound, the MIC in the test with Proteus vulgaris is 8 µg/mL (≈ 14 µM); in test [5], 0.25 µg/mL (≈ 0.438 µM); against Klebsiella pneumoniae [6], 8 µg/mL (≈ 14 µM); in the test with Enterococcus faecalis [7], 0.5 µg/mL (≈ 0.876 µM); in the test with Citrobacter freundii it was 4 µg/mL (≈ 7.01 µM); in test [8], 64 µg/mL (≈ 112 µM). The MIC in the test on Pseudomonas aeruginosa amounted to 128 µg/mL (≈ 224 µM); with Staphylococcus aureus [9], 0.25 µg/mL (≈ 0.438 µM); in the test with Enterococcus faecalis [10], 0.5 µg/mL (≈ 0.876 µM). Also, the Ratio in the test with Klebsiella pneumoniae [4] is 16.

(Values after ChEMBL document CHEMBL4627293, “Synthesis and in vitro activity of asymmetric indole-based bisamidine compounds against Gram-positive and Gram-negative pathogens” (2020).)
